# Source: patent publication US9296741B2, “Bromodomain inhibitors” (priority 2012, dated 2016)
# Columns and labels:
# [1] = molecular target: human BRD4 first bromodomain (BDI_K57-E168) (Homo sapiens (Human), UniProt O60885); test: TR-FRET bromodomain binding assay, BRD4 first bromodomain
# [2] = Human liver microsome stability assay; assay type: in vitro ADME; settings: both sexes, human, microsomes, pH 7.4
# [3] = Rat liver microsome stability assay; assay type: in vitro ADME; settings: rat liver microsomes (male Sprague-Dawley), 0.5 μM test compound, 0.25 mg/mL microsomal protein, pH 7.4, 37° C.; read-out: Stability in rat liver microsomes (t1/2 in minutes)
# [4] = Mouse liver microsome stability assay; assay type: in vitro ADME; settings: male, CD1, mouse, microsomes, pH 7.4
# [5] = molecular target: human BRD4 second bromodomain (BDII_E352-M457) (Homo sapiens (Human), UniProt O60885); test: TR-FRET bromodomain binding assay, BRD4 second bromodomain
# [6] = system: breast cancer cell line MX-1; test: MX-1 cell line proliferation assay; assay type: cell-based, human; settings: Homo sapiens, MX1, 72 h; MX-1 cells, 3-day proliferation, Cell Titer Glo; read-out: Cellular proliferation: EC50
Compound,Ki [1] [µM],half-life at 0.5 μM [2] [min],half-life at 0.5 μM [3] [min],half-life at 0.5 μM [4] [min],Ki [5] [µM],EC50 [6] [µM]
"Cn1cc(-c2cc(C(=O)N3CCN(C(=O)c4ccco4)CC3)ccc2Oc2ccc(F)cc2F)c2cc[nH]c2c1=O [Example 134, 4-[2-(2,4-difluorophenoxy)-5-{[4-(furan-2-ylcarbonyl)piperazin-1-yl]carbonyl}phenyl]-6-methyl-1,6-dihydro-7H-pyrrolo[2,3-c]pyridin-7-one]",0.0435,15,21,2,0.0073,0.137
"CCS(=O)(=O)N1CCN(C(=O)c2ccc(Oc3ccc(F)cc3F)c(-c3cn(C)c(=O)c4[nH]ccc34)c2)CC1 [Example 137, 4-[2-(2,4-difluorophenoxy)-5-{[4-(ethylsulfonyl)piperazin-1-yl]carbonyl}phenyl]-6-methyl-1,6-dihydro-7H-pyrrolo[2,3-c]pyridin-7-one]",0.0687,38,31,10,0.0089,0.303
"CCS(=O)(=O)Nc1ccc(Oc2cncnc2)c(-c2cn(C)c(=O)c3[nH]ccc23)c1 [Example 141, N-[3-(6-methyl-7-oxo-6,7-dihydro-1H-pyrrolo[2,3-c]pyridin-4-yl)-4-(pyrimidin-5-yloxy)phenyl]ethanesulfonamide]",0.0054,> 120,110,49,0.0152,0.125
"CCS(=O)(=O)Nc1ccc(OCc2ccnn2C)c(-c2cn(C)c(=O)c3[nH]ccc23)c1 [Example 142, N-{3-(6-methyl-7-oxo-6,7-dihydro-1H-pyrrolo[2,3-c]pyridin-4-yl)-4-[(1-methyl-1H-pyrazol-5-yl)methoxy]phenyl}ethanesulfonamide]",0.0065,112,35,32,0.0794,0.138
"CCS(=O)(=O)Nc1ccc(OCC2CC2)c(-c2cn(C)c(=O)c3[nH]ccc23)c1 [Example 145, N-[4-(cyclopropylmethoxy)-3-(6-methyl-7-oxo-6,7-dihydro-1H-pyrrolo[2,3-c]pyridin-4-yl)phenyl]ethanesulfonamide]",0.0027,> 120,12,16,0.0056,0.0264
"Cn1nc(-c2cc(N)ccc2Oc2ccc(F)cc2F)c2cc[nH]c2c1=O [Example 148, 4-[5-amino-2-(2,4-difluorophenoxy)phenyl]-6-methyl-1,6-dihydro-7H-pyrrolo[2,3-d]pyridazin-7-one]",0.205,58,2,6,0.152,0.74
"Cn1cc(-c2cc(S(C)(=O)=O)ccc2Oc2ccccc2Cl)c2cc[nH]c2c1=O [Example 152, 4-[2-(2-chlorophenoxy)-5-(methylsulfonyl)phenyl]-6-methyl-1,6-dihydro-7H-pyrrolo[2,3-c]pyridin-7-one]",0.0246,51,10,22,0.0048,0.105
"Cn1cc(-c2cc(S(C)(=O)=O)ccc2Oc2cccc(Cl)c2)c2cc[nH]c2c1=O [Example 153, 4-[2-(3-chlorophenoxy)-5-(methylsulfonyl)phenyl]-6-methyl-1,6-dihydro-7H-pyrrolo[2,3-c]pyridin-7-one]",0.0228,33,8,11,0.0082,0.0933
"Cn1cc(-c2cc(S(C)(=O)=O)ccc2Oc2cccc(C#N)c2)c2cc[nH]c2c1=O [Example 155, 3-[2-(6-methyl-7-oxo-6,7-dihydro-1H-pyrrolo[2,3-c]pyridin-4-yl)-4-(methylsulfonyl)phenoxy]benzonitrile]",0.0193,> 120,> 120,25,0.0148,0.117
"Cn1cc(-c2cc(S(C)(=O)=O)ccc2Oc2ccc(C#N)cc2)c2cc[nH]c2c1=O [Example 156, 4-[2-(6-methyl-7-oxo-6,7-dihydro-1H-pyrrolo[2,3-c]pyridin-4-yl)-4-(methylsulfonyl)phenoxy]benzonitrile]",0.0113,> 120,> 120,33,0.0209,0.114
"Cn1cc(-c2cc(S(C)(=O)=O)ccc2Oc2cccc(C(F)(F)F)c2)c2cc[nH]c2c1=O [Example 157, 6-methyl-4-{5-(methylsulfonyl)-2-[3-(trifluoromethyl)phenoxy]phenyl}-1,6-dihydro-7H-pyrrolo[2,3-c]pyridin-7-one]",0.0308,27,53,12,0.0218,0.15
"Cn1cc(-c2cc(S(C)(=O)=O)ccc2Oc2ccc(CC(N)=O)cc2)c2cc[nH]c2c1=O [Example 165, 2-{4-[2-(6-methyl-7-oxo-6,7-dihydro-1H-pyrrolo[2,3-c]pyridin-4-yl)-4-(methylsulfonyl)phenoxy]phenyl}acetamide]",0.005,> 120,111,27,0.0022,0.104
"CCS(=O)(=O)c1ccc(OC2CCN(C)CC2)c(-c2cn(C)c(=O)c3[nH]ccc23)c1 [Example 170, 4-{5-(ethylsulfonyl)-2-[(1-methylpiperidin-4-yl)oxy]phenyl}-6-methyl-1,6-dihydro-7H-pyrrolo[2,3-c]pyridin-7-one]",0.0228,> 120,113,27,0.094,0.332
"Cc1ccc(Oc2ccc(S(C)(=O)=O)cc2-c2cn(C)c(=O)c3[nH]ccc23)cc1 [Example 177, 6-methyl-4-[2-(4-methylphenoxy)-5-(methylsulfonyl)phenyl]-1,6-dihydro-7H-pyrrolo[2,3-c]pyridin-7-one]",0.0113,16,6,18,0.0044,0.0535
"COc1ccccc1Oc1ccc(S(C)(=O)=O)cc1-c1cn(C)c(=O)c2[nH]ccc12 [Example 178, 4-[2-(2-methoxyphenoxy)-5-(methylsulfonyl)phenyl]-6-methyl-1,6-dihydro-7H-pyrrolo[2,3-c]pyridin-7-one]",0.0105,27,7,10,0.0032,0.0362
"Cc1ccc(F)c(Oc2ccc(S(C)(=O)=O)cc2-c2cn(C)c(=O)c3[nH]ccc23)c1 [Example 186, 4-[2-(2-fluoro-5-methylphenoxy)-5-(methylsulfonyl)phenyl]-6-methyl-1,6-dihydro-7H-pyrrolo[2,3-c]pyridin-7-one]",0.0101,9,3,8,0.0033,0.0484
